In ChEMBL document CHEMBL1177695, “Discovery and development of natural product-derived chemotherapeutic agents based on a medicinal chemistry approach” (J Nat Prod, 2010) one finds IC50, selectivity ratio and EC50 data, which are given here for 25 compounds.

≈ marks a conversion by molar mass, not a printed value. Some results are limits rather than exact numbers.

In one series the test system is A-431. Briefly: Cytotoxicity against human A431 cells after 3 days by sulforhodamine B assay. The format is functional, cell-based. As to conditions: A-431, 72 h.
In another series the test system is KB. Briefly: Cytotoxicity against human KB cells after 3 days by sulforhodamine B assay. It is filed as functional, cell-based. As to conditions: 72 h.
The next series concerns HCT-8. Briefly: Cytotoxicity against human HCT8 cells after 3 days by sulforhodamine B assay. It is filed as functional, cell-based. As to conditions: HCT-8, 72 h. On the technique in general: In SRB staining, fixed cells bind dye roughly in proportion to their protein.
The nature of series [1]: Cytotoxicity against human KBVIN cells after 3 days by sulforhodamine B assay. Particulars: 72 h. It is filed as functional, cell-based.
The subject of a further series is PC-3. Briefly: Cytotoxicity against human PC3 cells after 3 days by sulforhodamine B assay. It is filed as functional, cell-based. Particulars: PC-3, 72 h.
Another series has as its system 1A9. Briefly: Cytotoxicity against human 1A9 cells after 3 days by sulforhodamine B assay. The format is functional, cell-based. As to conditions: 1A9, 72 h.
For another series, the system named is A549. Briefly: Cytotoxicity against human A549 cells after 3 days by sulforhodamine B assay. It is filed as functional, cell-based. Particulars: A549, 72 h.
A short description of series [2]: Therapeutic index, ratio of IC50 for human H9 cells to EC50 for HIV 3B. It is filed as cell-based. Particulars: read-out: TI.
For series [3], the system named is Human immunodeficiency virus 1. Briefly: Antiviral activity against HIV1 3B infected in H9 cells assessed as inhibition of viral replication by p24 antigen ELISA. The format is functional, organism-based. As to conditions: Human immunodeficiency virus 1, 3B, H9; read-out: EC50. For orientation: An ELISA detects its analyte on a solid surface through an enzyme-linked reagent.

A short description of series [4]: Therapeutic index, ratio of IC50 for human H9 cells to EC50 for multidrug-resistant HIV1 RTMDR1. The format is cell-based. As to conditions: read-out: TI.
Another series has as its system H9. Briefly: (§1) Cytotoxicity against human H9 cells after 4 days by coulter counter. As to conditions: Homo sapiens, H9, 96 h. The format is cell-based.
In series [5] the test system is Human immunodeficiency virus 1. Briefly: Antiviral activity against multidrug-resistant HIV1 RTMDR1 infected in H9 cells assessed as inhibition of viral replication by p24 antigen ELISA. Particulars: Human immunodeficiency virus 1, RTMDR1, H9. The format is functional, organism-based.
For series [6], the system named is Human immunodeficiency virus 1. Briefly: Antiviral activity against HIV1 infected in human H9 cells after 4 days by p24 antigen ELISA. The format is functional, organism-based. As to conditions: Human immunodeficiency virus 1, H9, 96 h.
Series [7] can be described thus: Therapeutic index, ratio of IC50 for human H9 cells to EC50 for HIV1. It is filed as cell-based. As to conditions: read-out: TI.
Series [8] deals with Human immunodeficiency virus 1. Briefly: Anti-HIV-1 activity in human H9 cells. As to conditions: H9, 96 h.
In another series the test system is Tubulin. Briefly: Inhibition of tubulin polymerization.
Series [9] is described as follows: as §1. Particulars: human, H9 cells; read-out: TI. The format is cell-based.

As for `C[C@H]1O[C@H](O[C@H]2CC[C@]3(C=O)[C@H]4CC[C@]5(C)[C@@H](c6ccc(=O)oc6)CC[C@]5(O)[C@@H]4CC[C@]3(O)C2)[C@H](O)[C@@H](O)[C@@H]1O` [KALANCHOSIDE A], the IC50 – broadly, the concentration at which inhibition is half-maximal – in the series on A-431 was 0.007 µg/mL (≈ 0.0124 µM); with KB, 0.003 µg/mL (≈ 0.00533 µM); in the series on HCT-8 it was 0.006 µg/mL (≈ 0.0107 µM); in [1], 0.003 µg/mL (≈ 0.00533 µM); in the series with PC-3 it was 0.002 µg/mL (≈ 0.00355 µM); in the series with 1A9, 0.0008 µg/mL (≈ 0.00142 µM). In the series with A549, this compound showed an IC50 of 0.0005 µg/mL (≈ 0.000889 µM).
With `CCCc1cc(=O)c2ccc3c(c2o1)[C@@H](OC(=O)C12CCC(C)(C(=O)O1)C2(C)C)[C@@H](OC(=O)C12CCC(C)(C(=O)O1)C2(C)C)C(C)(C)O3` (some centres undefined), the selectivity ratio in [2] was 1860; in [4], > 272. The EC50 (usually the concentration at which the effect is half-maximal) in series [3] was 0.02 µM; in series [5], 0.14 µM. Also, the concentration for half-maximal inhibition (IC50) in the series with H9 is > 37.7 µM.
`CC1(C)Oc2ccc3c(=O)cc(-c4ccccc4)oc3c2[C@@H](OC(=O)C23CCC(C)(C(=O)O2)C3(C)C)[C@H]1OC(=O)C12CCC(C)(C(=O)O1)C2(C)C` (some centres undefined): the selectivity ratio in [2] is 277; in [4], 71. The 50% effective concentration (EC50) in [3] was 0.13 µM; in series [5], 0.17 µM. This compound also came in with an IC50 with H9 of 12.2 µM.
Regarding `C[C@@H]1O[C@@H](O[C@H]2CC[C@]3(C=O)[C@H]4CC[C@]5(C)[C@@H](c6ccc(=O)oc6)CC[C@]5(O)[C@@H]4CC[C@]3(O)C2)[C@@H](O)[C@H](O)[C@@H]1O` [KALANCHOSIDE B], the IC50 in the series on A-431 was determined as 0.022 µg/mL (≈ 0.0391 µM); with KB, 0.005 µg/mL (≈ 0.00889 µM); in the series with HCT-8, 0.015 µg/mL (≈ 0.0267 µM); in [1] it was 0.013 µg/mL (≈ 0.0231 µM); in the series with PC-3 it was 0.01 µg/mL (≈ 0.0178 µM); in the series with 1A9, 0.007 µg/mL (≈ 0.0124 µM). In the series on A549, this compound had a 50% inhibitory concentration (IC50) of 0.001 µg/mL (≈ 0.00178 µM).
With `CCC1=C(O)c2c(oc(-c3cccc4ccccc34)cc2=O)C(CC)(CC)C1=O` [2-(NAPHTHALEN-1-YL)-6,8,8-TRIETHYL DESMOSDUMOTIN B], the half-maximal effective concentration (EC50) (in the series with A-431; with KB; in the series with HCT-8; in [1]; with PC-3; in the series on 1A9) was 0.2 µg/mL (≈ 0.515 µM) throughout. The compound further showed an EC50 with A549 of 0.2 µg/mL (≈ 0.515 µM).
Consider `CCOCc1cc(=O)c2ccc3c(c2o1)[C@@H](OC(=O)C12CCC(C)(C(=O)O1)C2(C)C)[C@@H](OC(=O)C12CCC(C)(C(=O)O1)C2(C)C)C(C)(C)O3` (some centres undefined), for which the selectivity ratio turned out to be 151 in series [2] and 34 in series [4]. The 50% effective concentration (EC50) in [3] was determined as 0.1 µM; in [5] it was 0.37 µM. For the same compound, the IC50 with H9 came out at 12.5 µM.
In the case of `C=C(C)[C@@H]1CC[C@]2(C(=O)O)CC[C@]3(C)[C@H](CC[C@@H]4[C@@]5(C)CC[C@H](OC(=O)CCC(=O)O)C(C)(C)[C@@H]5CC[C@]43C)[C@@H]12`, half-maximal inhibition in series [6] (IC50) was put at 16 µM. In addition, the selectivity ratio in series [7] was determined as 4. In series [8], this compound came in with an EC50 of 4 µM.
Consider `C=C(C)[C@@H]1CC[C@]2(C(=O)O)CC[C@]3(C)[C@H](CC[C@@H]4[C@@]5(C)CC[C@H](OC(=O)CC(C)(C)C(=O)O)C(C)(C)[C@@H]5CC[C@]43C)[C@@H]12` [BEVIRIMAT], for which the selectivity ratio in series [7] amounted to 20000. In series [8], this compound showed an EC50 of 0.00035 µM.
As to `C[C@@H]1C[C@H](O)[C@H](O)[C@@H](O[C@H]2CC[C@]3(C=O)[C@H]4CC[C@]5(C)[C@@H](c6ccc(=O)oc6)CC[C@]5(O)[C@@H]4CC[C@]3(O)C2)O1` [KALANCHOSIDE C], the IC50 in the series with A-431 is 0.055 µg/mL (≈ 0.101 µM); with KB it was 0.016 µg/mL (≈ 0.0293 µM); with HCT-8, 0.045 µg/mL (≈ 0.0823 µM); in series [1], 0.026 µg/mL (≈ 0.0476 µM); in the series with PC-3, 0.025 µg/mL (≈ 0.0457 µM); in the series on 1A9, 0.012 µg/mL (≈ 0.022 µM). This compound showed an IC50 in the series with A549 of 0.006 µg/mL (≈ 0.011 µM).
`Cc1ccc2c(=O)cc(-c3cccc(F)c3)[nH]c2n1` returned a half-maximal inhibitory concentration (IC50) with Tubulin of 0.53 µM.
Take `CCc1cc(=O)c2ccc3c(c2o1)[C@@H](OC(=O)C12CCC(C)(C(=O)O1)C2(C)C)[C@@H](OC(=O)C12CCC(C)(C(=O)O1)C2(C)C)C(C)(C)O3` (some centres undefined): the values for the selectivity ratio in series [2] and in series [4] were 116000 and 718, respectively. Besides, the concentration for half-maximal inhibition (IC50) in the series with H9 came to 37.2 µM. The EC50 in [5] turned out to be 0.06 µM.
`C=C(C)[C@@H]1CC[C@]2(C(=O)O)CC[C@]3(C)[C@H](CC[C@@H]4[C@@]5(C)CC[C@H](OC(=O)CCCC(=O)O)C(C)(C)[C@@H]5CC[C@]43C)[C@@H]12` yielded an IC50 in series [6] of 12.8 µM. In addition, the selectivity ratio in [7] stood at 292. In series [8], this compound had a half-maximal effective concentration (EC50) of 0.044 µM.
In the case of `COc1cc2ccc3c(c2oc1=O)[C@@H](OC(=O)C12CCC(C)(C(=O)O1)C2(C)C)[C@@H](OC(=O)C12CCC(C)(C(=O)O1)C2(C)C)C(C)(C)O3` (some centres undefined), the concentration for a half-maximal effect (EC50) in [3] worked out at 0.03 µM. In [9], the selectivity ratio at 96 h was > 15.
For `COc1cc(=O)oc2c3c(ccc12)OC(C)(C)[C@H](OC(=O)C12CCC(C)(C(=O)O1)C2(C)C)[C@@H]3OC(=O)C12CCC(C)(C(=O)O1)C2(C)C` (some centres undefined) the same measures were 0.05 µM and > 15.
Turning to `Cc1cc(=O)c2ccc3c(c2o1)[C@@H](OC(=O)C12CCC(C)(C(=O)O1)C2(C)C)[C@@H](OC(=O)C12CCC(C)(C(=O)O1)C2(C)C)C(C)(C)O3` (some centres undefined), the selectivity ratio in [2] turned out to be 8600; in series [4], 63. Further, in the series with H9, the half-maximal inhibitory concentration (IC50) amounted to 11.8 µM. Moreover, in [5], the half-maximal effective concentration (EC50) stood at 0.19 µM.
`C=C(C)[C@@H]1CC[C@]2(C(=O)O)CC[C@]3(C)[C@H](CC[C@@H]4[C@@]5(C)CC[C@H](OC(=O)C(C)(C)CC(=O)O)C(C)(C)[C@@H]5CC[C@]43C)[C@@H]12` returned a 50% inhibitory concentration (IC50) in series [6] of 15.9 µM. Moreover, the selectivity ratio in [7] is 6.7.
`Cc1cnc2[nH]c(-c3cccc(Cl)c3)cc(=O)c2c1`: 0.72 µM corresponded to half-maximal inhibition in the series with Tubulin (IC50).
Same read-out and setting: next, `Cc1cnc2[nH]c(-c3cccc(F)c3)cc(=O)c2c1`: 0.63 µM.
In series [6], `C=C(C)[C@@H]1CC[C@]2(C(=O)O)CC[C@]3(C)[C@H](CC[C@@H]4[C@@]5(C)CC[C@H](OC(=O)CC(C)(C)CC(=O)O)C(C)(C)[C@@H]5CC[C@]43C)[C@@H]12` yielded an IC50 of 4.5 µM. Besides, the selectivity ratio in [7] was determined as 2000. Moreover, in series [8], the midpoint of the response, the EC50, lay at 0.003 µM.
Regarding `Cc1cnc2nc(-c3cccc4ccccc34)cc(O)c2c1`, half-maximal inhibition with Tubulin (IC50) was put at 0.55 µM.
For the compound `C=C(C)[C@@H]1CC[C@]2(C(=O)O)CC[C@]3(C)[C@H](CC[C@@H]4[C@@]5(C)CC[C@H](OC(=O)/C=C/C)C(C)(C)[C@@H]5CC[C@]43C)[C@@H]12`, inhibition in series [6] was half-maximal at 48 µM (IC50). Moreover, the EC50 in series [8] was 19 µM.
For `C=C(C)[C@@H]1CC[C@]2(C(=O)O)CC[C@]3(C)[C@H](CC[C@@H]4[C@@]5(C)CC[C@H](OC(=O)COCC(=O)O)C(C)(C)[C@@H]5CC[C@]43C)[C@@H]12`, 11.7 µM corresponded to half-maximal inhibition in series [6] (IC50). Moreover, the selectivity ratio in series [7] came to 1170.
`COc1cccc(-c2cc(=O)c3ccc(C)nc3[nH]2)c1` came in with an IC50 in the series on Tubulin of 0.75 µM.
For `CC(C)c1cc(=O)c2ccc3c(c2o1)[C@@H](OC(=O)C12CCC(C)(C(=O)O1)C2(C)C)[C@@H](OC(=O)C12CCC(C)(C(=O)O1)C2(C)C)C(C)(C)O3` (some centres undefined), the values for the selectivity ratio in series [2] and in series [4] were 483 and > 111, respectively. The concentration for a half-maximal effect (EC50) in series [3] was 0.07 µM; in series [5] it was 0.14 µM. In the series with H9, the 50% inhibitory concentration (IC50) is 15 µM.
`Cc1cc2c(c3oc(=O)ccc13)[C@@H](OC(=O)C13CCC(C)(C(=O)O1)C3(C)C)[C@@H](OC(=O)C13CCC(C)(C(=O)O1)C3(C)C)C(C)(C)O2` (some centres undefined): the EC50 in series [3] came to 0.008 µM. Besides, the selectivity ratio at 96 h in series [9] is > 16.
